Reference: US8178708B2, “Lipid derivatives” (Pronova Biopharma Norge AS, priority 2006, dated 2012)

How the values were obtained:
[1] = molecular target: T1, ligand binding domain of human PPARα (Homo sapiens, UniProt Q07869); assay: GAL4-hPPARα LBD luciferase reporter, transient transfection in COS-1 cells; conditions: for Luciferase activation (fold activation) hPPARα: 10 μM, GAL4-hPPARα LBD chimera in COS-1 cells, negative control = 1.00; for PPAR selectivity profile (in words): conclusion from table 1, 10 μM
T1 sequence (Q07869 239-466 limits assumed): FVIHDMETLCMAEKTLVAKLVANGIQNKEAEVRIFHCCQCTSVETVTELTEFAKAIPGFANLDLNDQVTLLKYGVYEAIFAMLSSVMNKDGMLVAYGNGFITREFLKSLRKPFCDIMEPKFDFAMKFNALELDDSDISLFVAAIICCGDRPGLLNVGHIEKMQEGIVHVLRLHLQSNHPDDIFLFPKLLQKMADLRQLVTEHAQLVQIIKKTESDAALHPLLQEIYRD

[2] = molecular target: T2, ligand binding domain of human RXRα (Homo sapiens, UniProt P19793); assay: GAL4-hRXRα LBD luciferase reporter, transient transfection in COS-1 cells; conditions: for Luciferase activation (fold activation) hRXRα: 10 μM, GAL4-hRXRα LBD chimera in COS-1 cells, negative control = 1.00
T2 sequence (P19793 227-458 limits assumed): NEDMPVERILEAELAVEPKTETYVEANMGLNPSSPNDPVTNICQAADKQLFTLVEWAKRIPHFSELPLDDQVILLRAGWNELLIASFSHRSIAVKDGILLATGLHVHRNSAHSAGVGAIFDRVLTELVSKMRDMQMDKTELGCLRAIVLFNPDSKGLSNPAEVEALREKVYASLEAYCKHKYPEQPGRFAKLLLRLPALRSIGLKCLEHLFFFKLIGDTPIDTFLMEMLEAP

[3] = molecular target: T3, ligand binding domain of human PPARδ (Homo sapiens, UniProt Q03181); assay: GAL4-hPPARδ LBD luciferase reporter, transient transfection in COS-1 cells; conditions: 10 μM; GAL4-hPPARδ LBD chimera in COS-1 cells; negative control = 1.00
T3 sequence (Q03181 211-439 limits assumed): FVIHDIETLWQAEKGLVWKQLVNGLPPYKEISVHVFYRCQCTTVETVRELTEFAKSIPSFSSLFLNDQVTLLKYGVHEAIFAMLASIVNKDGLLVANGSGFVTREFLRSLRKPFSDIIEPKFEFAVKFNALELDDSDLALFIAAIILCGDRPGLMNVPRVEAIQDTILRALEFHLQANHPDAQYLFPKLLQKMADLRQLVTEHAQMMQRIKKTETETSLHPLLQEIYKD

[4] = molecular target: T4, ligand binding domain of human PPARγ (Homo sapiens, UniProt P37231); assay: GAL4-hPPARγ LBD luciferase reporter, transient transfection in COS-1 cells; conditions: 10 μM; GAL4-hPPARγ LBD chimera in COS-1 cells; negative control = 1.00
T4 sequence (P37231 238-503 limits assumed): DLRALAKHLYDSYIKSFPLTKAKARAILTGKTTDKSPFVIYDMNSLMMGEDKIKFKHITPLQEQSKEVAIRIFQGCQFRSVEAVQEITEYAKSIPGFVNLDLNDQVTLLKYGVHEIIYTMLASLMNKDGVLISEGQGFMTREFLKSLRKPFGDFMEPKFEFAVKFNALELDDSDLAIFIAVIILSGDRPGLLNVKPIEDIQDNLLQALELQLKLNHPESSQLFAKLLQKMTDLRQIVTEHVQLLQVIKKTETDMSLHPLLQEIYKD

[5] = tested on: NF-κB; assay: Inhibition of NF-κB in human monocytic cell lines (U937-3xkB-LUC luciferase assay); format: cell-based; conditions: U937-3xkB-LUC cells, NF-κB induced by LPS or human TNF-α; FIG. 1
Experimental: The novel compounds and DHA were solubilized to 12.5 μM in DMSO flushed with argon and stored at −20° C. Dexamethasone 10 μM in DMSO was used as positive control.
U937-3xkB-LUC cells, (Carlsen, J. Immun, 2002), were cultured in RPMI-1640 medium with L-glutamine ([…]), penicillin (50 U/ml), streptomycin ([…]), hygromycin (75 ug/ml), 10% Fetal Bovine Serum at 37° C. and 5% CO2. In the Cells were seeded in 24-well plates wherein 1% Fetal Bovin Serum was added to the medium. NF-κB activity was induced by lipopolysaccharide (LPS) (1 ug/ml) or human TNF-α (10 ng/ml). Cell viability was measured by trypan blue staining.
Luciferase activity was measured by imaging with a IVIS Imaging System from Xenogen Corp., USA. The Luminescence was detected after 1 min. and 5 min after addition of 0.2 mg d-luciferin per. ml cell medium. Number of photons in each well pr. second was calculated using Living Image Software (Xenogen Corp., USA).

| Structure (SMILES) | Luciferase activation (fold activation) hPPARα [1] [fold activation] | PPAR selectivity profile (in words) [1] | Luciferase activation (fold activation) hRXRα [2] [fold activation] | Luciferase activation (fold activation) hPPARδ [3] [fold activation] | Luciferase activation (fold activation) hPPARγ [4] [fold activation] | Inhibition of the NF-κB pathway (in words) [5] | RXRα ligand activity (in words) ([2]; conclusion from table 1, 10 μM) |
| --- | --- | --- | --- | --- | --- | --- | --- |
| CC/C=C\C/C=C\C/C=C\C/C=C\C/C=C\CCC/C(C)=C/C(=O)O [Compound 4, (2E,7Z,10Z,13Z,16Z,19Z)-3-methyl-docosa-2,7,10,13,16,19-hexaenoic acid] | 4.51 ± 0.52 | selective PPARα modulators/activators | 0.90 ± 0.08 | 1.28 ± 0.08 | 1.56 ± 0.12 | – | – |
| CC/C=C\C/C=C\C/C=C\C/C=C\CC/C=C/C=C(\C)C(=O)O [Compound 11, (2E,4E,8Z,11Z,14Z,17Z)-2-methyl-icosa-2,4,8,11,14,17-hexaenoic acid] | 6.79 ± 0.21 | selective PPARα modulators/activators | 0.84 ± 0.09 | 1.17 ± 00.20 | 1.67 ± 0.11 | – | – |
| CC/C=C\C/C=C\C/C=C\C/C=C\CC/C=C/C=C/C(=O)O [Compound 13, (2E,4E,8Z,11Z,14Z,17Z)-icosa-2,4,8,11,14,17-hexaenoic acid] | 4.89 ± 0.31 | selective PPARα modulators/activators | 0.81 ± 0.05 | 1.11 ± 0.16 | 1.63 ± 0.06 | potent inhibitors of the NF-κB pathway | – |
| CC/C=C\C/C=C\C/C=C\C/C=C\CC/C=C/C=C/C(C)=C/C(=O)O [Compound 25, (2E,4E,6E,10Z,13Z,16Z,19Z)-3-methyl-docosa-2,4,6,10,13,16,19-heptaenoic acid] | 8.27 ± 0.81 | PPAR pan modulators/activators | 1.57 ± 0.08 | 1.47 ± 0.38 | 4.32 ± 0.29 | potent inhibitors of the NF-κB pathway | RXRα ligand |
| Cc1cccc(Nc2cc(Cl)nc(SCC(=O)O)n2)c1C [Wy14643, reference compound] | 2.27 ± 0.04 | – | – | – | – | – | – |
